Experimental data published in PMC3155278 (ACS Medicinal Chemistry Letters, 2011).

Test system: REH cells
Assay: Chemotaxis
Assay type: cell-based
Conditions: 3 h migration

## SDF-1α
  Lowest concentration inducing migration: 10 pM
bell-shaped dose-response
  Concentration at peak of induced migration (chemotaxis peak): 1 nM
